How the values were obtained:
LCK (human) = LCK (human) (UniProt P06239); assay: Caliper, Mobility shift assay off-chip
EGFR (human) = EGFR (human) (UniProt P00533); assay: Caliper, Mobility shift assay off-chip
ABL1 (human) = ABL1 (human) (UniProt P00519); assay: Caliper, Mobility shift assay off-chip
MAP2K4 (human) = MAP2K4 (human) (UniProt P45985); assay: ELISA
Sequence of MAP2K4 (human) (P45985 whole entry, looked up): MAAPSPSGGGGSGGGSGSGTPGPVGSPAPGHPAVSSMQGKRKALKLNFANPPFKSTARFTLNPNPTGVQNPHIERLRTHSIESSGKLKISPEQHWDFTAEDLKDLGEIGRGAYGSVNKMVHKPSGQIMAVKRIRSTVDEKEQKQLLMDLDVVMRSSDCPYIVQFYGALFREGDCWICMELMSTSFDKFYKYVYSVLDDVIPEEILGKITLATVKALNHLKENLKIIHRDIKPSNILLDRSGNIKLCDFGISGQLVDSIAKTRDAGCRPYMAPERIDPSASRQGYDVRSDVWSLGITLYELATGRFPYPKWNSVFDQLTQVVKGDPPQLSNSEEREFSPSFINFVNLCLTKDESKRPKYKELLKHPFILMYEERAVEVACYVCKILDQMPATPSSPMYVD

Sequence of EGFR (human) (P00533 whole entry, looked up): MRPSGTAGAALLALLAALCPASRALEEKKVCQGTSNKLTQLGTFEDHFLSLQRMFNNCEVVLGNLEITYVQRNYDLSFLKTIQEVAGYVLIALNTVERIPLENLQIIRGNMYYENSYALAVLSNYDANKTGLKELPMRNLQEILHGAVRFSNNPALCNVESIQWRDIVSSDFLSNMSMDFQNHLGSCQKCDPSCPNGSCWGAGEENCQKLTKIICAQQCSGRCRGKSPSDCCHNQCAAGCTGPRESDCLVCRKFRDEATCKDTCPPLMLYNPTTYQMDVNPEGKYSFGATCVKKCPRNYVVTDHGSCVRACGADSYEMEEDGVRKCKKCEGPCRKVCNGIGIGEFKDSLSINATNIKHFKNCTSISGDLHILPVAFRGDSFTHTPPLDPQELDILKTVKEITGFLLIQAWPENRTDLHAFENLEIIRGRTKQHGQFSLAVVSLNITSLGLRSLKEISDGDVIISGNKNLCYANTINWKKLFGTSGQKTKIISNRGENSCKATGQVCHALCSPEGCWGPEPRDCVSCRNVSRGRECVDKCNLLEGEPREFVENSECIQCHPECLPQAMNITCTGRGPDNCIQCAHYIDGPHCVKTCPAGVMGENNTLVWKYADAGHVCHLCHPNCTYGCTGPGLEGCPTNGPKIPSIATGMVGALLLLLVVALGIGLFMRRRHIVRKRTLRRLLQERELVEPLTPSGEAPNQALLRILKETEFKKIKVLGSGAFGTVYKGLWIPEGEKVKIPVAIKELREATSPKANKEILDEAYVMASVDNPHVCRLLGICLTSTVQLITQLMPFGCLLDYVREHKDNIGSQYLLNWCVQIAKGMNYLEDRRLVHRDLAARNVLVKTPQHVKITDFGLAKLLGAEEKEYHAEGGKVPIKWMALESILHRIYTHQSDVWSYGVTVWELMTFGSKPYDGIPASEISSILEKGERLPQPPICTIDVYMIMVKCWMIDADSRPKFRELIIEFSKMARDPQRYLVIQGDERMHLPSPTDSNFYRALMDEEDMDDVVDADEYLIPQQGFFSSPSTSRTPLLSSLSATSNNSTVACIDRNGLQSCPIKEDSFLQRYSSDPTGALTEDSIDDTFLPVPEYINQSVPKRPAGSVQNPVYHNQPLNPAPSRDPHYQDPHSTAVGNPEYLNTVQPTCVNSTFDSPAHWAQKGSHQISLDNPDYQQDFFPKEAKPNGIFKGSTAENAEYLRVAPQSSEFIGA
Sequence of LCK (human) (P06239 whole entry, looked up): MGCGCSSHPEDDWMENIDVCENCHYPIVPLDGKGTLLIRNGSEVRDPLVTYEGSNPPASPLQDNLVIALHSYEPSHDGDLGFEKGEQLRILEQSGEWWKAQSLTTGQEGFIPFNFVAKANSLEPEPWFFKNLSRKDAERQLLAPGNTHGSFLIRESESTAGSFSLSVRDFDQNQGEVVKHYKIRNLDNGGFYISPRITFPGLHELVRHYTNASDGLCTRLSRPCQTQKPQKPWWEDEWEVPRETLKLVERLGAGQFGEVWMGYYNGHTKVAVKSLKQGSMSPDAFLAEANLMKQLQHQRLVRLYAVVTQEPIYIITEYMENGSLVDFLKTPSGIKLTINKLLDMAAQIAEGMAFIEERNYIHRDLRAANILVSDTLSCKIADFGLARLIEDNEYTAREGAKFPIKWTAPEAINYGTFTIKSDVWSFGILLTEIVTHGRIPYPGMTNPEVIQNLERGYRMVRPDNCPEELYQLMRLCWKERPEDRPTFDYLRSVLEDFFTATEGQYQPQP
Sequence of ABL1 (human) (P00519 whole entry, looked up): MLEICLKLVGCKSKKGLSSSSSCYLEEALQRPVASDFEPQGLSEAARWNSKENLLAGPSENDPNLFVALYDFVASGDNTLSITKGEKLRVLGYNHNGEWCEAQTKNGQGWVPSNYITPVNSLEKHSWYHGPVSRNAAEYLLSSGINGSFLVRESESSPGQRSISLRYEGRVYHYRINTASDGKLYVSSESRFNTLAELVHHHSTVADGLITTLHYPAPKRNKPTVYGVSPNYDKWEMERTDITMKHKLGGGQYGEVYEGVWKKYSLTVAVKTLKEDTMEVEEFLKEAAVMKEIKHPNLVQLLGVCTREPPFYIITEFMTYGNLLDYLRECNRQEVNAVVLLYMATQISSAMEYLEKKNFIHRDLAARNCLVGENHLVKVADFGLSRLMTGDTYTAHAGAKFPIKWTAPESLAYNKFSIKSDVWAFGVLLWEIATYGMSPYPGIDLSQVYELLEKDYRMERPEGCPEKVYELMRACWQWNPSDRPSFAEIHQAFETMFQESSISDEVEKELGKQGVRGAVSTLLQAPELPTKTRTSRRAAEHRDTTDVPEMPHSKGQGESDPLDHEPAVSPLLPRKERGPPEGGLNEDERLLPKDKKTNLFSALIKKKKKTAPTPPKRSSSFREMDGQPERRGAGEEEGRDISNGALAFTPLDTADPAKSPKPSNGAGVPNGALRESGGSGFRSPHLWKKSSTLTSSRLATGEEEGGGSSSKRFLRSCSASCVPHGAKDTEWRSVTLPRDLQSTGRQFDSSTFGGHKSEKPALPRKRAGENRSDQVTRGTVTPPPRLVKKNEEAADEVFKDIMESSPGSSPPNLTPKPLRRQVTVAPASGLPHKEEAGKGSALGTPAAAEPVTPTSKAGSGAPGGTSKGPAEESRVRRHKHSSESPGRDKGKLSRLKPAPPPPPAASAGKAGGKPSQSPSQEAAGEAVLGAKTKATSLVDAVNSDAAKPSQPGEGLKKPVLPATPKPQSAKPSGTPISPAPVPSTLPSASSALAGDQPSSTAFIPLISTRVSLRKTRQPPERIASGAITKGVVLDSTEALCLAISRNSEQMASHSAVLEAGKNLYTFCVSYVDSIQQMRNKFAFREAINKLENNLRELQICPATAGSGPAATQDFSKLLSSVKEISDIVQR

| inhibition (LCK (human); compound 0.02 µM) | inhibition (LCK (human); compound 0.2 µM) | inhibition (EGFR (human); compound 0.02 µM) | inhibition (EGFR (human); compound 0.2 µM) | inhibition (ABL1 (human); compound 0.02 µM) | inhibition (ABL1 (human); compound 0.2 µM) | inhibition (MAP2K4 (human); compound 0.02 µM) | inhibition (MAP2K4 (human); compound 0.2 µM) | inhibition (MAP2K4 (human); compound 4.0 µM) | inhibition (MAP2K4 (human); compound 0.001 µM) | SMILES |
| --- | --- | --- | --- | --- | --- | --- | --- | --- | --- | --- |
|  |  |  |  |  |  |  | 2.8% | 51.9% |  | CCN(CC)CCNC(=O)c1c(C)[nH]c(/C=C2\C(=O)Nc3ccc(F)cc32)c1C |
| 7% | 44.1% |  | -1.3% |  |  | 8.7% | 9.5% |  |  | Cc1ccc(Nc2nccc(N(C)c3ccc4c(C)n(C)nc4c3)n2)cc1S(N)(=O)=O |

The next lines start with the compound.

| SMILES | inhibition (LCK (human); compound 0.02 µM) | inhibition (LCK (human); compound 0.2 µM) | inhibition (EGFR (human); compound 0.02 µM) | inhibition (EGFR (human); compound 0.2 µM) | inhibition (ABL1 (human); compound 0.02 µM) | inhibition (ABL1 (human); compound 0.2 µM) | inhibition (MAP2K4 (human); compound 0.02 µM) | inhibition (MAP2K4 (human); compound 0.2 µM) | inhibition (MAP2K4 (human); compound 4.0 µM) | inhibition (MAP2K4 (human); compound 0.001 µM) |
| --- | --- | --- | --- | --- | --- | --- | --- | --- | --- | --- |
| COc1cc2c(Oc3ccc4[nH]c(C)cc4c3F)ncnc2cc1OCCCN1CCCC1 | 23% | 72.7% | 30.6% | 78.4% | 24.1% | 58.9% | 0.9% | -5.2% |  |  |
| CNC(=O)c1cc(Oc2ccc(NC(=O)Nc3ccc(Cl)c(C(F)(F)F)c3)cc2)ccn1 |  |  |  |  |  |  | 1.7% | 3.6% |  |  |
| CNC(=O)c1ccccc1Sc1ccc2c(/C=C/c3ccccn3)n[nH]c2c1 |  |  |  |  |  |  | -5.7% |  |  | -0.4% |

Reference: the kinase profiling compilation of Christmann-Franck et al. (2016)
